# Reference: patent publication US9545105B2, “1-(heterocyclic carbonyl) piperidines” (BAYER INTELLECTUAL PROPERTY GMBH, priority 2010, dated 2017)
# Assays:
# Pyrenophora teres = test: In vivo preventive test on Pyrenophora teres (barley); conditions: 500 ppm of active ingredient, evaluated 7-9 days after inoculation
# Protocol: Solvent: 49 parts by weight of N,N-dimethylformamide Emulsifier: 1 part by weight of alkylaryl polyglycol ether To produce a suitable preparation of active compound, 1 part by weight of active compound is mixed with the stated amounts of solvent and emulsifier, and the concentrate is diluted with water to the desired concentration. To test for preventive activity, young plants are sprayed with the preparation of active compound at the stated rate of application. One day after this treatment, the plants are inoculated with an aqueous spore suspension of Pyrenophora teres. The plants remain for 48 hours in an incubation cabinet at 22° C. and a relative atmospheric humidity of 100%. Then the plants are placed in a greenhouse at a temperature of approximately 20° C. and a relative atmospheric humidity of approximately 80%. The test is evaluated 7-9 days after the inoculation. 0% means an efficacy which corresponds to that of the untreated control while an efficacy of 100% means that no disease is observed.
# Alternaria solani = test: In vivo preventive test on Alternaria solani (tomato); conditions: 500 ppm of active ingredient, evaluated 7 days after inoculation
# Protocol: Solvent: 49 parts by weight of N,N-dimethylformamide Emulsifier: 1 part by weight of Alkylarylpolyglycolether To produce a suitable preparation of active compound, 1 part by weight of active compound is mixed with the stated amounts of solvent and emulsifier, and the concentrate is diluted with water to the desired concentration. To test for preventive activity, young plants are sprayed with the preparation of active compound at the stated rate of application. One day after this treatment, the plants are inoculated with an aqueous spore suspension of Alternaria solani. The plants remain for one day in an incubation cabinet at approximately 22° C. and a relative atmospheric humidity of 100%. Then the plants are placed in an incubation cabinet at approximately 20° C. and a relative atmospheric humidity of 96%. The test is evaluated 7 days after the inoculation. 0% means an efficacy which corresponds to that of the untreated control while an efficacy of 100% means that no disease is observed.
# [1] = log P by HPLC on reversed-phase column (C 18), EEC Directive 79/831 Annex V.A8; type: physicochemical; conditions: HPLC on reversed-phase column (C 18); 40° C.; 0.1% aqueous formic acid and acetonitrile; linear gradient 10% to 90% acetonitrile
# Protocol: In table 1, the log P values were determined in accordance with EEC Directive 79/831 Annex V.A8 by HPLC (High Performance Liquid Chromatography) on a reversed-phase column (C 18), using the method described below: Temperature: 40° C.; Mobile phases: 0.1% aqueous formic acid and acetonitrile; linear gradient from 10% acetonitrile to 90% acetonitrile. Calibration was carried out using unbranched alkan-2-ones (comprising 3 to 16 carbon atoms) with known log P values (determination of the log P values by the retention times using linear interpolation between two successive alkanones). lambda-max-values were determined using UV-spectra from 200 nm to 400 nm and the peak values of the chromatographic signals.
SMILES,logP [1],Efficacy (Pyrenophora teres) [%],Efficacy (Alternaria solani) [%]
Cc1ccccc1C1CCCCN1C(=O)c1c(C(F)F)nn(C)c1Cl (centres unmarked) [Example 5],3.37,95,90
Cc1ccc(C2CCCCN2C(=O)c2c(C(F)F)nn(C)c2Cl)cc1C (centres unmarked) [Example 8],3.87,90,94
Cc1cc(C)cc(C2CCCCN2C(=O)c2c(C(F)(F)F)cn(C)c2F)c1 (centres unmarked) [Example 34],4.27,100,90
Cn1nc(C(F)F)c(C(=O)N2CCCCC2c2ccccc2Cl)c1Cl (centres unmarked) [Example 40],3.48,95,95
Cn1nc(C(F)F)c(C(=O)N2CCCCC2c2cccc(Cl)c2)c1Cl (centres unmarked) [Example 47],3.60,100,100
CCc1nn(C)c(F)c1C(=O)N1CCCCC1c1ccc2c(c1)OCO2 (centres unmarked) [Example 59],2.73,70,78
Cc1nn(C)c(F)c1C(=O)N1CCCCC1c1ccc2c(c1)OCO2 (centres unmarked) [Example 60],2.44,80,94
Cn1nc(C(F)F)c(C(=O)N2CCCCC2c2ccc3c(c2)OCCO3)c1F (centres unmarked) [Example 65],2.75,100,90
CCc1nn(C)c(F)c1C(=O)N1CCCCC1c1cccc(Cl)c1Cl (centres unmarked) [Example 72],3.62,95,95
CCc1nn(C)c(F)c1C(=O)N1CCCCC1c1cccc(Oc2ccccc2)c1 (centres unmarked) [Example 112],3.96,–,94
CCc1nn(C)c(F)c1C(=O)N1CCCCC1Cc1ccccc1 (centres unmarked) [Example 131],2.92,100,–
Cc1nc(C(F)F)c(C(=O)N2CCCCC2Cc2cccc(F)c2)s1 (centres unmarked) [Example 151],3.19,–,95
COc1ccccc1CC1CCCCN1C(=O)c1sc(C)nc1C(F)F (centres unmarked) [Example 159],3.33,90,–
CCC(c1ccccc1Cl)C1CCCCN1C(=O)c1c(C(F)F)nn(C)c1Cl (centres unmarked) [Example 161],4.44,94,–

# The next lines start with results.
logP [1],SMILES,Efficacy (Pyrenophora teres) [%],Efficacy (Alternaria solani) [%]
3.67,Cn1nc(C(F)F)c(C(=O)N2CCCCC2c2ccc(Cl)cc2)c1Cl (centres unmarked) [Example 55],80,95
3.33,Cc1cc(C(=O)N2CCCCC2c2ccc3c(c2)OCO3)c(C)o1 (centres unmarked) [Example 58],–,78
4.29,Cc1cc(C(=O)N2CCCCC2c2cccc(Cl)c2Cl)c(C)o1 (centres unmarked) [Example 71],80,80
4.54,Cc1cc(C(=O)N2CCCCC2c2ccc(Cl)cc2Cl)c(C)o1 (centres unmarked) [Example 79],80,–
4.36,Cc1cc(C(=O)N2CCCCC2c2cc(Cl)ccc2Cl)c(C)o1 (centres unmarked) [Example 84],90,–
4.16,Cc1cc(C(=O)N2CCCCC2c2ccc(Br)cc2)c(C)o1 (centres unmarked) [Example 100],70,–
3.51,CCc1nn(C)c(F)c1C(=O)N1CCCCC1c1ccc(Br)cc1 (centres unmarked) [Example 102],100,–
4.16,CCc1noc(C)c1C(=O)N1CCCCC1c1cccc(Oc2ccccc2)c1 (centres unmarked) [Example 110],–,78
4.36,Cc1cc(C(=O)N2CCCCC2c2cccc(I)c2)c(C)o1 (centres unmarked) [Example 116],–,78
3.87,Cc1cc(C(=O)N2CCCCC2Cc2ccccc2C)c(C)o1 (centres unmarked) [Example 141],–,90
3.96,Cc1cccc(CC2CCCCN2C(=O)c2cc(C)oc2C)c1 (centres unmarked) [Example 143],–,80
3.99,Cc1ccc(CC2CCCCN2C(=O)c2cc(C)oc2C)cc1 (centres unmarked) [Example 146],–,95
3.57,Cc1cc(C(=O)N2CCCCC2Cc2ccc(F)cc2)c(C)o1 (centres unmarked) [Example 155],–,78
